Results published in ChEMBL document CHEMBL3797136, “Insights into the structure-activity relationship of the anticancer compound ZJ-101: A critical role played by the cyclohexene ring” (Bioorg Med Chem Lett, 2016).
pIC50: −log10 of the molar value.

Key:
Format in all cases: functional, cell-based
RKO = test: Antiproliferative activity against human RKO cells assessed as cell viability by Alamar Blue assay
[1] = Antiproliferative activity against human […] assessed as cell viability by Alamar Blue assay
[2] = Antiproliferative activity against human SF295 cells assessed as cell viability by Alamar Blue assay; conditions: SF-295
MDA-MB-231 = test: Antiproliferative activity against human MDA-MB-231 cells assessed as cell viability by Alamar Blue assay

CC(=O)N[C@H](C)[C@@H](O)[C@@H](C)[C@@H]1OC(=O)/C=C/C=C(C)\C=C\[C@]2(C)CCC=C[C@@H]2/C=C(C)/C=C/[C@H]1C
pIC50 (RKO): 6.81
pIC50 [1]: 7.44
pIC50 [2]: 7.18
pIC50 (MDA-MB-231): 7.37

CC(=O)N[C@H](C)[C@@H](O)[C@@H](C)[C@@H]1OC(=O)/C=C/C=C(C)\C=C\c2ccccc2/C=C(C)/C=C/[C@H]1C
pIC50 (RKO): < 5.30
pIC50 [1]: 5.66
pIC50 [2]: < 5.30
pIC50 (MDA-MB-231): < 5.30
